US20150238446A1, “NEW TREATMENT OF FISH WITH A NANOSUS PENS ION OF LUFENURON OR HEXAFLUMURON” (Novartis AG, priority 2012, published 2015)

What was measured:
[1] = Stability testing of oily lufenuron or hexaflumuron formulations; format: physicochemical; conditions: in organic solvents/media
From the text: WO99/063824 discloses the use of hexaflumuron and lufenuron, both members of the chemical class of benzoylureas, in the control of sea lice infestations on fish. Hexaflumurone is applied to the fish orally, via bath treatment or via injection, lufenuron is proposed exclusively for injection. Oily injectable formulations of the two active ingredients, in particular those comprising, in addition, a vaccine against furunculosis, show activity against sea lice for 128 days or in case of hexaflumuron even longer. […] The resulting low shelf life make them unsuited for commercial use. […] In addition, as both hexaflumuron and lufenuron have a strong tendency to aggregate and form sediments in an aqueous environment, the handling of water-based injectables is difficult and cumbersome. So it is not surprising that no commercial lufenuron or hexaflumuron sea lice product has made it to the market until now.

sea lice = conditions: cited from earlier work; for duration of activity against sea lice: oily injectable formulations, in particular with a vaccine against furunculosis (WO99/063824)
[2] = cited from earlier work
L. salmonis = assay: In vivo test in Atlantic salmon, natural sea lice infestation, pre-adult and adult count; conditions: nanosuspension injected
Experimental: Three groups of 150 salmon (Atlantic Salmon, S. salar) of an average weight 200 g were injected with an amount of the above nanosuspension (a) equivalent to 25 mg (cage 1), 50 mg (cage 2) or 75 mg lufenuron per kg salmon (cage 3). A fourth cage containing 150 salmon of average weight 200 g was added to the study as a non-treated control group.
After treatment, the fish were exposed to natural sea lice infestation for a period of 8 months. During the study the water temperature varied between 4 and 12° C. Sea louse numbers were assessed on a monthly basis until month 8. Counts were conducted on 10 fish at each sampling occasion. The numbers of pre-adults and adult L. salmonis were recorded for each fish. Efficacy was calculated using the formula:
% Efficacy=100−(100×mean of treatment group/mean of control).

SMILES: O=C(NC(=O)c1c(F)cccc1F)Nc1cc(Cl)c(OC(F)(F)C(F)F)c(Cl)c1 [hexaflumuron, 1-[3,5-dichloro-4-(1,1,2,2-tetrafluoroethoxyl)phenyl]-3-(2,6-difluorobenzoyl)urea]
- chemical stability of the active ingredient [1]: chemically instable
- performance in vivo against sea lice (sea lice; hexaflumuron containing aqueous suspension (WO99/063824)): poor performance
- duration of activity against sea lice (sea lice): > 128 days
- water-solubility [2]: ≤ 0.027 µg/mL

SMILES: O=C(NC(=O)c1c(F)cccc1F)Nc1cc(Cl)c(OC(F)(F)C(F)C(F)(F)F)cc1Cl (centres unmarked) [lufenuron, N-{[2,5-Dichlor-4-(1,1,2,3,3,3-hexafluorpropoxyl)phenyl]carbamoyl}-2,6-difluorbenzamid]
- % efficacy pre-adult and adult count (L. salmonis; 25 mg/kg lufenuron, 1 month): 100%
- % efficacy pre-adult and adult count (L. salmonis; 25 mg/kg lufenuron, 2 month): 95%
- % efficacy pre-adult and adult count (L. salmonis; 25 mg/kg lufenuron, 3 month): 100%
- % efficacy pre-adult and adult count (L. salmonis; 25 mg/kg lufenuron, 4 month): 96%
- % efficacy pre-adult and adult count (L. salmonis; 25 mg/kg lufenuron, 5 month): 100%
- % efficacy pre-adult and adult count (L. salmonis; 25 mg/kg lufenuron, 6 month): 81%
- duration of complete protection of the fish against sea lice infestation (L. salmonis; 25 mg/kg): at least 5 month
- duration of complete protection of the fish against sea lice infestation (L. salmonis; 50 mg/kg fish, until the end of the study): 8 month
- % efficacy pre-adult and adult count (L. salmonis; 50 mg/kg lufenuron, 1 month): 90%
- % efficacy pre-adult and adult count (L. salmonis; 50 mg/kg lufenuron, 2 month): 100%
- % efficacy pre-adult and adult count (L. salmonis; 50 mg/kg lufenuron, 3 month): 100%
- % efficacy pre-adult and adult count (L. salmonis; 50 mg/kg lufenuron, 4 month): 100%
- % efficacy pre-adult and adult count (L. salmonis; 50 mg/kg lufenuron, 5 month): 97%
- % efficacy pre-adult and adult count (L. salmonis; 50 mg/kg lufenuron, 6 month): 96%
- % efficacy pre-adult and adult count (L. salmonis; 50 mg/kg lufenuron, 7 month): 98%
- % efficacy pre-adult and adult count (L. salmonis; 50 mg/kg lufenuron, 8 month): 98%
- % efficacy pre-adult and adult count (L. salmonis; 75 mg/kg lufenuron, 1 month): 100%
- % efficacy pre-adult and adult count (L. salmonis; 75 mg/kg lufenuron, 2 month): 100%
- % efficacy pre-adult and adult count (L. salmonis; 75 mg/kg lufenuron, 3 month): 100%
- % efficacy pre-adult and adult count (L. salmonis; 75 mg/kg lufenuron, 4 month): 96%
- % efficacy pre-adult and adult count (L. salmonis; 75 mg/kg lufenuron, 5 month): 100%
- % efficacy pre-adult and adult count (L. salmonis; 75 mg/kg lufenuron, 6 month): 100%
- % efficacy pre-adult and adult count (L. salmonis; 75 mg/kg lufenuron, 7 month): 98%
- % efficacy pre-adult and adult count (L. salmonis; 75 mg/kg lufenuron, 8 month): 100%
- duration of complete protection of the fish against sea lice infestation (L. salmonis; 75 mg/kg, until the end of the study): 8 month
- chemical stability of the active ingredient [1]: chemically instable
- duration of activity against sea lice (sea lice): 128 days
- water-solubility [2]: ≤ 0.06 µg/mL
